The record followed here is the supplement of paper PMC10307832.

Test in all cases: relative viability (nuclei count vs DMSO), 5 days (fraction); higher = more cells survive
Compound in assay [1]: C=CC(=O)Nc1cc(-n2c(=O)ccc3cnc4ccc(-c5ccc(NS(C)(=O)=O)cc5)cc4c32)ccc1C [BMX-IN-1] + C[C@@H](Oc1cc(-c2cnn(C3CCNCC3)c2)cnc1N)c1c(Cl)ccc(F)c1Cl [Crizotinib] (partner 1 µM)
The method, boiled down: (§1)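 The day after seeding in 1536-well plates, lung cancer cell lines were treated by pin tool with a single drug, or with a fixed anchor-drug dose together with five library-drug doses (not always all listed) in √10 steps. After 5 days, a combined fix-and-stain solution (final 0.05% Triton X-100, 1% formaldehyde, 1 ug/ml Hoechst) was added. Nuclei counted on 4× images gave relative viability as treated counts over vehicle counts, reported as the median of duplicate plates.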

Compound in assay [2]: C=CC(=O)Nc1cc(-n2c(=O)ccc3cnc4ccc(-c5ccc(NS(C)(=O)=O)cc5)cc4c32)ccc1C [BMX-IN-1] + Cc1nc(NC(=O)N2CCC[C@H]2C(N)=O)sc1-c1ccnc(C(C)(C)C(F)(F)F)c1 [Alpelisib] (partner 2 µM)
The method, boiled down:
as §1

Compound in assay [3]: C=CC(=O)Nc1cc(-n2c(=O)ccc3cnc4ccc(-c5ccc(NS(C)(=O)=O)cc5)cc4c32)ccc1C [BMX-IN-1] + Cc1nc(Nc2ncc(C(=O)Nc3c(C)cccc3Cl)s2)cc(N2CCN(CCO)CC2)n1 [Dasatinib] (partner 0.075 µM)
The method, boiled down: as §1

Compound in assay [4]: C=CC(=O)Nc1cc(-n2c(=O)ccc3cnc4ccc(-c5ccc(NS(C)(=O)=O)cc5)cc4c32)ccc1C [BMX-IN-1] + Nc1ncn([C@H]2C[C@H](O)[C@@H](CO)O2)c(=O)n1 [Decitabine] (partner 2 µM)
The method, boiled down:
as §1

Compound in assay [5]: C=CCc1cccc(/C=N/NC(=O)CN2CCN(Cc3ccccc3)CC2)c1O [PAC-1] + Nc1nc2[nH]cc(CCc3ccc(C(=O)N[C@@H](CCC(=O)O)C(=O)O)cc3)c2c(=O)[nH]1 [Pemetrexed] (partner 0.2 µM)
The essentials:
as §1

For SK-MES-1, the relative viability in assay [1] (first compound 0.02 µM) turned out to be 1.08; in assay [1] (first compound 0.2 µM), 1.3; in assay [1] (first compound 0.6325 µM), 1.08; in assay [1] (first compound 2 µM) it was 1.1; in assay [2] (first compound 0.02 µM), 1.09; in assay [2] (first compound 0.2 µM) it was 0.947. The relative viability was 0.911 in assay [2] (first compound 0.6325 µM); 0.88 in assay [2] (first compound 2 µM); 0.43 in assay [3] (first compound 0.02 µM); 0.317 in assay [3] (first compound 0.2 µM); 0.337 in assay [3] (first compound 0.6325 µM); 0.34 in assay [3] (first compound 2 µM). Also, the relative viability is 0.398 in assay [4] (first compound 0.02 µM); 0.432 in assay [4] (first compound 0.2 µM); 0.425 in assay [4] (first compound 0.6325 µM); 0.637 in assay [4] (first compound 2 µM); 0.939 in assay [5] (first compound 0.02 µM); 1.02 in assay [5] (first compound 0.06325 µM). Besides, the relative viability is 0.889 in assay [5] (first compound 0.2 µM) and 0.971 in assay [5] (first compound 2 µM).
